Reference: the supplement of paper PMC10307832

Legend:
Experiment in all cases: relative viability (nuclei count vs DMSO), 5 days (fraction); higher = more cells survive
PC-3 [JPC-3] = test system: PC-3 [JPC-3]
Outline: (§1)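 Relative viability divides the nuclei count in treated wells by that in vehicle wells. Lung cancer cell lines were seeded in 1536-well plates, dosed by pin tool the next day, and fixed and stained after 5 days in one step with final 0.05% Triton X-100, 1% formaldehyde and 1 ug/ml Hoechst. Dosing was a single drug or a fixed anchor-drug dose plus five library-drug doses (not always all listed) in √10 steps, and values are medians of duplicate plates imaged at 4×.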

NCI-H1915 = test system: NCI-H1915
Outline: as §1

NCI-H661 = test system: NCI-H661
Outline: as §1

201T = test system: 201T
Outline: as §1

CAL-12T = test system: CAL-12T
Outline: as §1

NCI-H2087 = test system: NCI-H2087
Outline: as §1

NCI-H2023 = test system: NCI-H2023
Outline: as §1

NCI-H1792 = test system: NCI-H1792
Outline: as §1

NCI-H650 = test system: NCI-H650
Outline: as §1

BEN = test system: BEN
Outline: as §1

LCLC-97TM1 = test system: LCLC-97TM1
Outline: as §1

NCI-H727 = test system: NCI-H727
Outline: as §1

NCI-H520 = test system: NCI-H520
Outline: as §1

H3255 = test system: H3255
Outline: as §1

ABC-1 = test system: ABC-1
Outline: as §1

NCI-H1944 = test system: NCI-H1944
Outline: as §1

NCI-H460 = test system: NCI-H460
Outline: as §1

A-427 = test system: A-427
Outline: as §1

NCI-H1651 = test system: NCI-H1651
Outline: as §1

NCI-H596 = test system: NCI-H596
Outline: as §1

NCI-H441 = test system: NCI-H441
Outline: as §1

LC-2-ad = test system: LC-2-ad
Outline: as §1

SMILES: NC(=O)Nc1cc(-c2cccc(F)c2)sc1C(=O)N[C@H]1CCCNC1 [AZD7762] + Cc1nc(NC(=O)N2CCC[C@H]2C(N)=O)sc1-c1ccnc(C(C)(C)C(F)(F)F)c1 [Alpelisib] (partner 2 µM)
- relative viability (PC-3 [JPC-3]; first compound 0.01 µM): 0.998
- relative viability (PC-3 [JPC-3]; first compound 0.03162 µM): 1.03
- relative viability (PC-3 [JPC-3]; first compound 0.1 µM): 1.05
- relative viability (PC-3 [JPC-3]; first compound 0.3162 µM): 1.1
- relative viability (PC-3 [JPC-3]; first compound 1 µM): 0.897
- relative viability (NCI-H1915; first compound 0.01 µM): 1.06
- relative viability (NCI-H1915; first compound 0.03162 µM): 1.12
- relative viability (NCI-H1915; first compound 0.1 µM): 1.09
- relative viability (NCI-H1915; first compound 0.3162 µM): 1.09
- relative viability (NCI-H1915; first compound 1 µM): 0.997
- relative viability (NCI-H661; first compound 0.01 µM): 0.712
- relative viability (NCI-H661; first compound 0.03162 µM): 0.611
- relative viability (NCI-H661; first compound 0.1 µM): 0.761
- relative viability (NCI-H661; first compound 0.3162 µM): 0.491
- relative viability (NCI-H661; first compound 1 µM): 0.35
- relative viability (201T; first compound 0.01 µM): 1.01
- relative viability (201T; first compound 0.03162 µM): 1.05
- relative viability (201T; first compound 0.1 µM): 1.02
- relative viability (201T; first compound 0.3162 µM): 1.08
- relative viability (201T; first compound 1 µM): 1.11
- relative viability (CAL-12T; first compound 0.01 µM): 1.3
- relative viability (CAL-12T; first compound 0.03162 µM): 1.18
- relative viability (CAL-12T; first compound 0.1 µM): 1.24
- relative viability (CAL-12T; first compound 0.3162 µM): 0.955
- relative viability (CAL-12T; first compound 1 µM): 0.155
- relative viability (NCI-H2087; first compound 0.01 µM): 1.18
- relative viability (NCI-H2087; first compound 0.03162 µM): 1.08
- relative viability (NCI-H2087; first compound 0.1 µM): 1.45
- relative viability (NCI-H2087; first compound 0.3162 µM): 1.34
- relative viability (NCI-H2087; first compound 1 µM): 1.27
- relative viability (NCI-H2023; first compound 0.01 µM): 0.651
- relative viability (NCI-H2023; first compound 0.03162 µM): 0.608
- relative viability (NCI-H2023; first compound 0.1 µM): 0.436
- relative viability (NCI-H2023; first compound 0.3162 µM): 0.328
- relative viability (NCI-H2023; first compound 1 µM): 0.108
- relative viability (NCI-H1792; first compound 0.01 µM): 0.826
- relative viability (NCI-H1792; first compound 0.03162 µM): 0.781
- relative viability (NCI-H1792; first compound 0.1 µM): 0.727
- relative viability (NCI-H1792; first compound 0.3162 µM): 0.751
- relative viability (NCI-H1792; first compound 1 µM): 0.9
- relative viability (NCI-H650; first compound 0.01 µM): 1.19
- relative viability (NCI-H650; first compound 0.03162 µM): 1.12
- relative viability (NCI-H650; first compound 0.1 µM): 1.19
- relative viability (NCI-H650; first compound 0.3162 µM): 1.27
- relative viability (NCI-H650; first compound 1 µM): 1.02
- relative viability (BEN; first compound 0.01 µM): 1.21
- relative viability (BEN; first compound 0.03162 µM): 0.992
- relative viability (BEN; first compound 0.1 µM): 0.883
- relative viability (BEN; first compound 0.3162 µM): 1.06
- relative viability (BEN; first compound 1 µM): 0.845
- relative viability (LCLC-97TM1; first compound 0.01 µM): 0.292
- relative viability (LCLC-97TM1; first compound 0.03162 µM): 0.272
- relative viability (LCLC-97TM1; first compound 0.1 µM): 0.314
- relative viability (LCLC-97TM1; first compound 0.3162 µM): 0.278
- relative viability (LCLC-97TM1; first compound 1 µM): 0.298
- relative viability (NCI-H727; first compound 0.01 µM): 0.583
- relative viability (NCI-H727; first compound 0.03162 µM): 0.561
- relative viability (NCI-H727; first compound 0.1 µM): 0.471
- relative viability (NCI-H727; first compound 0.3162 µM): 0.466
- relative viability (NCI-H727; first compound 1 µM): 0.218
- relative viability (NCI-H520; first compound 0.01 µM): 1.05
- relative viability (NCI-H520; first compound 0.03162 µM): 1.04
- relative viability (NCI-H520; first compound 0.1 µM): 0.832
- relative viability (NCI-H520; first compound 0.3162 µM): 0.635
- relative viability (NCI-H520; first compound 1 µM): 0.371
- relative viability (H3255; first compound 0.01 µM): 0.727
- relative viability (H3255; first compound 0.03162 µM): 0.63
- relative viability (H3255; first compound 0.1 µM): 0.634
- relative viability (H3255; first compound 0.3162 µM): 0.705
- relative viability (H3255; first compound 1 µM): 0.357
- relative viability (ABC-1; first compound 0.01 µM): 1.03
- relative viability (ABC-1; first compound 0.03162 µM): 0.831
- relative viability (ABC-1; first compound 0.1 µM): 0.942
- relative viability (ABC-1; first compound 0.3162 µM): 0.557
- relative viability (ABC-1; first compound 1 µM): 0.311
- relative viability (NCI-H1944; first compound 0.01 µM): 0.855
- relative viability (NCI-H1944; first compound 0.03162 µM): 1.03
- relative viability (NCI-H1944; first compound 0.1 µM): 1.01
- relative viability (NCI-H1944; first compound 0.3162 µM): 1.08
- relative viability (NCI-H1944; first compound 1 µM): 0.893
- relative viability (NCI-H460; first compound 0.01 µM): 0.604
- relative viability (NCI-H460; first compound 0.03162 µM): 0.498
- relative viability (NCI-H460; first compound 0.1 µM): 0.54
- relative viability (NCI-H460; first compound 0.3162 µM): 0.293
- relative viability (NCI-H460; first compound 1 µM): 0.0196
- relative viability (A-427; first compound 0.01 µM): 1.07
- relative viability (A-427; first compound 0.03162 µM): 1.14
- relative viability (A-427; first compound 0.1 µM): 1.1
- relative viability (A-427; first compound 0.3162 µM): 1.1
- relative viability (A-427; first compound 1 µM): 0.864
- relative viability (NCI-H1651; first compound 0.01 µM): 0.918
- relative viability (NCI-H1651; first compound 0.03162 µM): 0.849
- relative viability (NCI-H1651; first compound 0.1 µM): 0.927
- relative viability (NCI-H1651; first compound 0.3162 µM): 0.753
- relative viability (NCI-H1651; first compound 1 µM): 0.33
- relative viability (NCI-H596; first compound 0.01 µM): 0.549
- relative viability (NCI-H596; first compound 0.03162 µM): 0.514
- relative viability (NCI-H596; first compound 0.1 µM): 0.481
- relative viability (NCI-H596; first compound 0.3162 µM): 0.503
- relative viability (NCI-H596; first compound 1 µM): 0.421
- relative viability (NCI-H441; first compound 0.01 µM): 1.17
- relative viability (NCI-H441; first compound 0.03162 µM): 0.831
- relative viability (NCI-H441; first compound 0.1 µM): 1.2
- relative viability (NCI-H441; first compound 0.3162 µM): 1.01
- relative viability (NCI-H441; first compound 1 µM): 1.09
- relative viability (LC-2-ad; first compound 0.01 µM): 0.979
- relative viability (LC-2-ad; first compound 0.03162 µM): 0.897
- relative viability (LC-2-ad; first compound 0.1 µM): 0.795
- relative viability (LC-2-ad; first compound 0.3162 µM): 0.612
- relative viability (LC-2-ad; first compound 1 µM): 0.433
